# Measured values reported in US11827628B2, “Compositions and methods for inhibition of the JAK pathway” (Rigel Pharmaceuticals, Inc., priority 2005, dated 2023).
# Tests used:
# [1] = system: IL-4 stimulated expression of CD23 in human Ramos B cells (JAK-1 and JAK-3); experiment: Assay for Ramos B-Cell Line Stimulated with IL-4 (CD23 upregulation, FACS); format: cell-based; details: Ramos B-cell line stimulated with IL-4; CD23 expression by FACS; read-out: IC50, Example 41
# How it was run: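 Steps: Ramos B cells are suspended in RPMI with 5% serum, exposed to compound for 1 h at 37 °C, stimulated with IL-4 (final 50 units/mL) for 20-24 h, stained for CD23 and analysed by flow cytometry. IC50 is calculated.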
# Primary human T-cells = experiment: Primary Human T-Cell Proliferation Assay Stimulated with IL-2 (CellTiter-Glo); format: cell-based; details: primary human T-cell proliferation stimulated with IL-2; read-out: IC50, Example 42
# How it was run: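 IC50 derived from CellTiter-Glo ATP signal after 72 hours of IL-2-driven proliferation at 37° C. Cells: primary human T-cells from blood, stimulated beforehand 3-4 days on anti-CD3/anti-CD28 with IL-2, then rested from IL-2 before compound exposure in duplicate; IL-2-free wells served as unstimulated control.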
Molecule,IC50 [1],IC50 (Primary human T-cells)
"Cc1nc(COc2ccc(Nc3nc(Nc4cccc(S(N)(=O)=O)c4)ncc3F)cc2)no1 [Compound I-276, N2-(3-Aminosulfonyl)phenyl-5-fluoro-N4-[4-(5-methyl-1,2,4-oxadiazol-3-yl)methoxy]phenyl-2,4-pyrimidinediamine]",135 nM,106 nM
"Cc1cc(Nc2nc(Nc3cccc(S(N)(=O)=O)c3)ncc2F)cc(C)c1OCC#N [Compound I-26, N2-(3-Aminosulfonyl)phenyl-N4-(4-cyanomethoxy-3,5-dimethyl)phenyl-5-fluoro-2,4-pyrimidinediamine]",37.8 nM,401 nM
"Cc1cc(COc2ccc(Nc3nc(Nc4ccc(F)c(S(N)(=O)=O)c4)ncc3F)cc2C)no1 [Compound I-237, N2-(3-Aminosulfonyl-4-fluorophenyl)-5-fluoro-N4-[3methyl-4-(5-methylisoxazol-3-yl)methyleneoxyphenyl]-2,4-pyrimidinediamine]",147 nM,2040 nM
"Cc1nc(COc2ccc(Nc3nc(Nc4ccc(C)c(S(N)(=O)=O)c4)ncc3F)cc2)cs1 [Compound I-280, N2-(3-Aminosulfonyl-4-methylphenyl)-5-fluoro-N4-[4-(2-methylthiazol-4-yl)methyleneoxyphenyl]-2,4-pyrimidinediamine]",145 nM,978 nM
"Cc1noc(COc2cccc(Nc3nc(Nc4cccc(S(N)(=O)=O)c4)ncc3F)c2)n1 [Compound I-252, N2-(3-Aminosulfonylphenyl)-5-fluoro-N4-[3-(3-methyl-1,2,4-oxadiazol-5-yl)methyleneoxyphenyl]-2,4-pyrimidinediamine]",90.6 nM,558 nM
"Cc1nnc(COc2ccc(Nc3nc(Nc4ccc(F)c(S(N)(=O)=O)c4)ncc3F)cc2)o1 [Compound I-278, N2-(3-Aminosulfonyl-4-fluorophenyl)-5-fluoro-N4-[4-(5-methyl-1,3,4-oxadiazol-2-yl)methyleneoxyphenyl]-2,4-pyrimidinediamine]",193 nM,412 nM
"Cc1noc(COc2cccc(Nc3nc(Nc4ccc(C)c(S(N)(=O)=O)c4)ncc3F)c2)n1 [Compound I-254, N2-(3-Aminosulfonyl-4-methylphenyl)-5-fluoro-N4-[3-(3-methyl-1,2,4-oxadiazol-5-yl)methyleneoxyphenyl]-2,4-pyrimidinediamine]",155 nM,1910 nM
"Cc1noc(COc2ccc(Nc3nc(Nc4cccc(S(=O)(=O)NCc5oc(=O)oc5C)c4)ncc3F)cc2)n1 [Compound I-257, N2-{3-[(N-5-Methyl-1,3-dioxolene-2-one-4-yl)methylene]aminosulfonylphenyl}-5-fluoro-N4-[4-(3-methyl-1,2,4-oxadiazol-5-yl)methyleneoxyphenyl]-2,4-pyrimidinediamine]",145 nM,102 nM
"Cc1cnc(Nc2ccc(S(N)(=O)=O)cc2)nc1Nc1ccc(CCC#N)cc1 [III-27, N2-(4-Aminosulfonylphenyl)-N4-(4-cyanoethylenephenyl)-5-methyl-2,4-pyrimidinediamine]",58.3 nM,119 nM
"Cc1noc(CCc2ccc(Nc3nc(Nc4ccc(F)c(S(N)(=O)=O)c4)ncc3F)cc2)n1 [Compound I-267, N2-(3-Aminosulfonyl-4-fluorophenyl)-5-fluoro-N4-[4-(3-methyl-1,2,4-oxadiazol-5-yl)ethylenephenyl]-2,4-pyrimidinediamine]",328 nM,2020 nM
"CCN(CC)CCNS(=O)(=O)c1ccc(Nc2ncc(F)c(Nc3ccc(OCc4cc(C)on4)cc3)n2)cc1 [Compound I-246, N2-[4-(2-N,N-Diethylaminoethyl)aminosulfonylphenyl)-5-fluoro-N4-[4-(5-methylisoxazol-3-yl)methyleneoxyphenyl]-2,4-pyrimidinediamine]",106 nM,182 nM
"CNS(=O)(=O)c1cc(Nc2ncc(F)c(Nc3ccc(OCc4csc(C)n4)cc3)n2)ccc1C [Compound I-282, 5-Fluoro-N2-[3-(N-methylaminosulfony)-4-methylphenyl]-N4-[4-(2-methylthiazol-4-yl)methyleneoxyphenyl]-2,4-pyrimidinediamine]",339 nM,697 nM
"CCN(CC)CCNS(=O)(=O)c1ccc(Nc2ncc(F)c(Nc3ccc(CC#N)cc3)n2)cc1 [III-2, N2-[4-(2-N,N-Diethylaminoethyl)aminosulfonylphenyl)-5-fluoro-N4-(4-cyanomethylphenyl)-2,4-pyrimidinediamine]",224 nM,3440 nM
"Cc1nc(COc2ccc(Nc3nc(Nc4ccc(S(N)(=O)=O)cc4)ncc3F)cc2)cs1 [Compound I-285, N2-(4-Aminosulfonylphenyl)-5-fluoro-N4-[4-(2-methylthiazol-4-yl)methyleneoxyphenyl]-2,4-pyrimidinediamine]",133 nM,314 nM
"Cc1ccc(Nc2ncc(F)c(Nc3ccc(CC#N)cc3)n2)cc1S(N)(=O)=O [III-7, N2-(3-Aminosulfonyl-4-methyl)phenyl-N4-(4-cyanomethyl)phenyl-5-fluoro-2,4-pyrimidinediamine]",85.1 nM,195 nM

# More lines, in order of falling IC50 [1], values ahead:
IC50 [1],Molecule,IC50 (Primary human T-cells)
698 nM,"N2-(3-Aminocarbonyl-5-methylphenyl)-5-fluoro-N2-[4-(1-methylpyrazol-5-yl)amidophenyl)-2,4-pyrimidinediamine [II-21]",1760 nM
428 nM,"N2-(3-Aminocarbonyl-5-methylphenyl)-5-fluoro-N2-[4-(1-ethylpyrazol-5-yl)amidophenyl)-2,4-pyrimidinediamine [II-20]",969 nM
215 nM,"COc1cc(Nc2ncc(F)c(Nc3ccc(CC#N)cc3)n2)ccc1S(N)(=O)=O [III-9, N2-(4-Aminosulfonyl-3-methoxy)phenyl-N4-(4-cyanomethyl)phenyl-5-fluoro-2,4-pyrimidinediamine]",1800 nM
161 nM,"COc1cc(Nc2ncc(F)c(Nc3cc(C)c(OCC#N)c(C)c3)n2)ccc1S(N)(=O)=O [Compound I-32, N2-(4-Aminosulfonyl-3-methoxy)phenyl-N4-(4-cyanomethoxy-3,5-dimethyl)phenyl-5-fluoro-2,4-pyrimidinediamine]",2780 nM
60.7 nM,"Cc1noc(COc2ccc(Nc3nc(Nc4ccc(S(N)(=O)=O)cc4)ncc3F)cc2)n1 [Compound I-268, N2-(4-Aminosulfonylphenyl)-5-fluoro-N4-(4-[3-methyl-1,2,4-oxadiazol-5-yl]methyleneoxyphenyl)-2,4-pyrimidinediamine]",140 nM
36.1 nM,"Cc1cc(COc2ccc(Nc3nc(Nc4cc(C)c(F)c(S(N)(=O)=O)c4)ncc3F)cc2F)no1 [Compound I-224, N2-(3-Aminosulfonyl-4-fluoro-5-methylphenyl)-5-fluoro-N4-[3-fluoro-4-(5-methylisoxazol-3-yl)methyleneoxyphenyl]-2,4-pyrimidinediamine]",194 nM
30.1 nM,"Cc1cc(Nc2nc(Nc3cccc(S(N)(=O)=O)c3)ncc2F)ccc1OCC#N [Compound I-23, N2-(3-Aminosulfonyl)phenyl-N4-(4-cyanomethoxy-3-methyl)phenyl-5-fluoro-2,4-pyrimidinediamine]",88.2 nM
